What was measured:
Assay type in all cases: cell-based
[1] = system: Ustilago avenae; test: Ustilago avenae test (in vitro)/microtest; settings: single active compound, 4 days incubation, optical density
Method: Ustilago avenae—Test (In Vitro)/Microtest
(§1) The microtest was performed in liquid medium with potato-dextrose broth (PDB) using microtitre plates.
(§2) The active compound is applied as the technical active substance dissolved in methanol.
A spore suspension of Ustilago avenae was used for inoculation. After 4 days of incubation by darkness under shaking (10 Hrz), the optical density in each cavity was evaluated with the aid of a microtitre plate reader.
(§3) 0% means an efficacy which corresponds to that of the control, while an efficacy of 100% means that no fungal growth is observed.

[2] = system: Pyricularia oryzae; settings: single active compound, 0.3 ppm, 4 days incubation, optical density
[3] = system: Phytophthora cryptogea; test: Phytophthora cryptogea test (in vitro)/microtest; settings: single active compound, 0.3 ppm, 3 days incubation, optical density
Method: Phytophthora cryptogea—Test (In Vitro)/Microtest
as §1, §2
A mycelium suspension of Phytophthora ayptogea was used for inoculation. After 3 days of incubation by darkness under shaking (10 Hrz), the optical density in each cavity was evaluated with the aid of a microtitre plate reader.
as §3

Row | SMILES | Efficacy in % ([1]; Example B, 0.01 ppm) [%] | Efficacy in % [2] [%] | Efficacy in % ([1]; Example D, 0.1 ppm) [%] | Efficacy in % [3] [%]
1 | Cc1nn(C)c(F)c1C(=O)Nc1ccccc1C(C)CC(C)C (centres unmarked) [BYF 14182] | 95 | – | – | –
2 | CO/N=C(/C(=O)OC)c1ccccc1CO/N=C(\C)c1cccc(C(F)(F)F)c1 [Trifloxystrobin, trifloxystrobin] | – | 56 | – | –
3 | CC(C)(C)C(O)(CCc1ccc(Cl)cc1)Cn1cncn1 (centres unmarked) [Tebuconazole, tebuconazole] | – | – | 96 | –
4 | COc1ccc(-c2coc3cc(O)ccc3c2=O)cc1 [Formononetin] | 13 | 11 | 17 | 14
5 | COCC(=O)N(c1c(C)cccc1C)C(C)C(=O)OC (centres unmarked) [Metalaxyl, metalaxyl] | – | – | – | 48
